Assay results as given in patent publication US20220184143A1, “COMPOSITIONS AND METHODS OF MODULATING CASOTRANSMITTER SIGNALING” (CASE WESTERN RESERVE UNIVERSITY, priority 2019, published 2022).

Tests used:
[1] = target: T1, AGO2 (Homo sapiens, UniProt Q9UKV8); assay: AGO2 immunoblot following SNO-RAC in HEK293 cells; type: cell-based; parameters: endogenous in cells; host or cells: HEK293
Method: S-nitrosylated proteins were isolated by SNO-RAC as described. In brief, cells were lysed in HEN buffer additionally containing 1% NP-40, 50 mM NaCl and protease inhibitors. Free cysteines were blocked with S-Methyl methanethiosulfonate (MMTS). After acetone precipitation and multiple 70% acetone washes, proteins were re-suspended in HEN buffer containing 1% SDS. 50 μl thiopropyl Sepharose 6B resin (GE, Chicago, Ill.) and 50 mM sodium ascorbate were added, followed by rotation in the dark for 4 hr at room temperature. Following multiple washes, the bound proteins were eluted in 2×SDS-PAGE loading buffer containing 10% β-mercaptoethanol. Following separation on reducing pre-cast 4-20% SDS-PAGE gels (Bio-Rad Laboratories, Hercules, Calif.), individual SNO-proteins were detected by Western blotting using specific antibodies (anti-FLAG, anti-myc, anti-ALG-1, anti-AGO2, anti-GW182) or the gel was stained using the SilverQuest™ silver staining kit (ThermoFisher Scientific, Waltham, Mass.) or Imperial™ Protein Stain (ThermoFisher Scientific, Waltham, Mass.), per manufacturer instructions.
Transfected HEK293 or HeLa cells were cultured at 37° C. in 15 cm tissue culture-treated dishes. They were then treated with either 500 μM DETA-NOate (t1/2=20 hr) for 16 hours, 100 μM CysNO for 10 min, or 200 μM dipropylenetriamine (DPTA)-NONOate (Cayman Chemicals, Ann Arbor, Mich.) for 6 hours. […]

[2] = target: T2, AGO2 (Homo sapiens, UniProt Q9UKV8, C691S); assay: let-7 luciferase reporter miRNA activity assay in HeLa cells; type: cell-based; details: C691S AGO2, Hmga2 3'UTR reporter
T2 construct: expressed in transfected cells; host or cells: HeLa
Method: (§1) 0.5×10^5 cells/well Hela cells were plated in wells of 24 well dishes. They were transiently transfected the next day with 2 μg of either WT-AGO2 or C691S-AGO2, plus 100 ng of either Hmga2 3′UTR-WT luciferase (Luc-wt) or Hmga2 3′UTR-mutant7 luciferase (Luc-m7) control. 100 ng pMax-GFP was also co-transfected to normalize for transfection efficiency. Transfections were carried out using Lipofectamine® 2000 transfection reagent (ThermoFisher Scientific, Waltham, Mass.). Six hours after transfection, the NO donor DETA-NONOate (Cayman Chemicals, Ann Arbor, Mich.) was added at 500 μM. The cells were harvested 24 hours post-transfection, using 1× Passive Lysis Buffer (Promega, Madison, Wis.). Renilla luciferase activity was measuredusing the Renilla Luciferase Assay System (Promega, Madison, Wis.) and a Veritas™ microplate luminometer (Turner BioSystems, Sunnyvale, Calif.) and normalized to GFP readings measured using a BMG FluoStar Galaxy microplate reader. Hmga2 3′UTR WT luciferase (Luc-wt) and Hmga2 3′UTR m7 luciferase (Luc-m7) were gifts from David Bartel (Addgene plasmid #14785 and #14788, respectively)).

[3] = target: T3, AGO2 and GW182 (Homo sapiens, UniProt Q9UKV8); assay: Co-immunoprecipitation of AGO2 and GW182 in HEK293 cells; type: cell-based
T3 construct: host or cells: HEK293
Method: Transfected HEK293 or HeLa cells were cultured at 37° C. in 15 cm tissue culture-treated dishes. They were then treated with either 500 μM DETA-NOate (t1/2=20 hr) for 16 hours, 100 μM CysNO for 10 min, or 200 μM dipropylenetriamine (DPTA)-NONOate (Cayman Chemicals, Ann Arbor, Mich.) for 6 hours. Cells were washed once with DPBS without calcium chloride and magnesium chloride from Gibco® (Life Technologies, Carlsbad, Calif.) and incubated on ice for 10 minutes in IP lysis/wash buffer (ThermoFisher Scientific, Waltham, Mass.) with added EDTA-free protease inhibitor tablet (Roche, Basel, Switzerland). This was followed by centrifugation at 14,000 g for 10 minutes to collect the supernatant. The lysates were then used for immunoprecipitation experiments.
For HEK293 cells, all steps were performed either on ice or in the cold room at 4° C. Immunoprecipitations (IP) were performed with 3 mg of total lysate that was pre-cleared using a Pierce™ control agarose resin (ThermoFisher Scientific, Waltham, Mass.), after which 10 μg of IP antibody was added, and samples were incubated overnight at 4° C. with rotation. The next day, 30 μl of protein A/G Sepharose (ThermoFisher Scientific, Waltham, Mass.) was added and the samples were incubated for 2 hours at 4° C. […] The eluates were neutralized by adding 3 μl of 1M Tris-HCl, pH 8.0 and analyzed by western blotting. […]

[4] = target: T1, AGO2; assay: let-7 luciferase reporter miRNA activity assay in HeLa cells; type: cell-based; parameters: expressed in transfected cells; host or cells: HeLa; details: WT AGO2, Hmga2 3'UTR reporter
Method: as §1

[5] = cited from earlier work

T1 sequence (Q9UKV8 whole entry): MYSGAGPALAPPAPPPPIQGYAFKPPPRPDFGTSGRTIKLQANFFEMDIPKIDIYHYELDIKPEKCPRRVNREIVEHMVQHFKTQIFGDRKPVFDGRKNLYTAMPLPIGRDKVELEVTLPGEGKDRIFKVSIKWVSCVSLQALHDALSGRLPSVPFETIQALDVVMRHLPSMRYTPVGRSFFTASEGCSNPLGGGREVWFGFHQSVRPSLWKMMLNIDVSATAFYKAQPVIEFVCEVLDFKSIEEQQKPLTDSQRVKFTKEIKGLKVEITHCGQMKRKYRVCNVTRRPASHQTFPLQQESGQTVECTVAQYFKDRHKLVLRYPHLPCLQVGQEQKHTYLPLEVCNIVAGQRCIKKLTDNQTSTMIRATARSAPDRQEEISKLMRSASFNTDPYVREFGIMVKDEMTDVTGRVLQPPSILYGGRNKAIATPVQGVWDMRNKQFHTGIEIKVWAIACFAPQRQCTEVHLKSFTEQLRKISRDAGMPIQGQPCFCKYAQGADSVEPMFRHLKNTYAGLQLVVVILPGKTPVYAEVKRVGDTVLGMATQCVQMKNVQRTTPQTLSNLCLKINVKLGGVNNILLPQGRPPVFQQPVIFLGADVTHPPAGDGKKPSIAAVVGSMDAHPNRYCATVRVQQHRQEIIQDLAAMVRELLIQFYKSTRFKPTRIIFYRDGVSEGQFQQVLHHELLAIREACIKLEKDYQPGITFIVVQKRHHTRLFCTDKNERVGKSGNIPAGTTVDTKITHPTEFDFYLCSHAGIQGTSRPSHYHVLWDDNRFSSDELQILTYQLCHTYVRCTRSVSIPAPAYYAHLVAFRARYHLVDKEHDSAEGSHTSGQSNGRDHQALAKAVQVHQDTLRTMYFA
T3 sequence (Q9UKV8 whole entry): as above
T2 sequence (Q9UKV8 whole entry C691S): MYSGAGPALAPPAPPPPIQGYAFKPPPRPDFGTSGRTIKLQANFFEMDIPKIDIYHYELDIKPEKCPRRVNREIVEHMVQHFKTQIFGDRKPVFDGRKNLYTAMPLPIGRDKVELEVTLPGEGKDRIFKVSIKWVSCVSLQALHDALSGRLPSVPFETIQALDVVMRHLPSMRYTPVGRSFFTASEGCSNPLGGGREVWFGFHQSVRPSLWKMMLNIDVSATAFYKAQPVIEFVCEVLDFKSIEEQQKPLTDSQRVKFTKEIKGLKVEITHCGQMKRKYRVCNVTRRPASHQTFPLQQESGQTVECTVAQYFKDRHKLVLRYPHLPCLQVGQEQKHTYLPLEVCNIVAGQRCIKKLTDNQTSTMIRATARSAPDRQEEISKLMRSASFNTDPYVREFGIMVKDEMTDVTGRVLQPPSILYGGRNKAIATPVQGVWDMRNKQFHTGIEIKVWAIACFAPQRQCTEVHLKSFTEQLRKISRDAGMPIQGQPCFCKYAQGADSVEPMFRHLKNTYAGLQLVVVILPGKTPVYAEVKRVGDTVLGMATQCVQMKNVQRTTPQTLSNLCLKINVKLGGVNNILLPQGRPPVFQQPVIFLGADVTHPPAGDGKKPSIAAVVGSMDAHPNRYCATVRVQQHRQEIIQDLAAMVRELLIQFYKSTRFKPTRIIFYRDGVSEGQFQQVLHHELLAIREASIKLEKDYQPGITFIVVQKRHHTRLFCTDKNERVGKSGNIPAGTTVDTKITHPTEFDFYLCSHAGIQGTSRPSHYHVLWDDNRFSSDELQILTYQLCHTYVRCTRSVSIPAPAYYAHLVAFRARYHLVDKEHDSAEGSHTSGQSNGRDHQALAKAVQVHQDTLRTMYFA

S-nitrosylation of WT AGO2 ([1]; HEK293 cells transfected with WT AGO2, 100 μM)	mutant C691S AGO2 activity [2]	association of WT AGO2 with GW182 ([3]; co-immunoprecipitation, transfected HEK293 cells)	interaction between endogenous AGO2 and GW182 ([3]; cultured mammalian cells)	WT AGO2 repression of luciferase target [4]	S-nitrosylation of AGO2 by endogenous eNOS ([1]; HEK293 cells, 500 μM)	Compound	t1/2 [5] [h]
strongly S-nitrosylated						N[C@@H](CSN=O)C(=O)O [CysNO, S-nitrosocysteine]	
	little effect	strongly inhibited	inhibited	repressed its target poorly	enhanced	NCCN(CCN)/[N+]([O-])=N/O [DETA-NO, DETA-NONOate]	20
